Measurements: US6914045B2, “Glycopeptide antibiotics” (Wyeth Holdings Corporation, priority 2001, dated 2005)
Values after ≈ are worked out from the molar mass of the structure shown. Like-named read-outs stand apart in the source and are kept apart here.

Legend:
Assay in all cases: in vitro antibacterial evaluation, MIC by broth dilution
Assay type in all cases: cell-based
Enterococcus sp. = system: Enterococcus sp.
Procedure, shortened: (§1)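 Step 1: dilute antibiotic across 64-0.06 μg/mL in Muller-Hinton II […]. Step 2: inoculate at 5×10^5 CFU/mL.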

Staphylococcus sp. = system: Staphylococcus sp.
Procedure, shortened: as §1

Streptococcus sp. = system: Streptococcus sp.
Procedure, shortened: as §1

Escherichia coli = system: Escherichia coli
Procedure, shortened: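 MIC is the lowest antibiotic concentration (tested 64-0.06 μg/mL) preventing growth of a 5×10^5 CFU/mL inoculum. Determined by broth dilution in Mueller-Hinton II medium following NCCLS standard M7-A2.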

[1] = broth dilution, 18 hours at 35° C.

CC(c1ccccc1)C1NC(=O)CNC(=O)C(CO)NC(=O)C(C(O)C2CNC(=N)N2C2OC(CO)C(O)C(O)C2O)NC(=O)C(C(O)C2CNC(=N)N2)NC(=O)C(Cc2ccc3oc(-c4ccc5c(c4)Cc4ccccc4-5)nc3c2)NC1=O (stereo not drawn) [Example 37, Cyclo[3-[2-(9H-fluoren-2-yl)-1,3-benzoxazol-5-yl]alanyl-3-(2-iminoimidazolidin-4-yl)seryl-3-(3-hexopyranosyl-2-iminoimidazolidin-4-yl)serylserylglycyl-β-methylphenylalanyl]]
MIC Enterococcus avium (GC 4558) (Enterococcus sp.): 8 µg/mL (≈ 6.9 µM)
MIC Enterococcus faecalis (ATCC 29212) (Enterococcus sp.): 16 µg/mL (≈ 13.8 µM)
MIC Enterococcus faecalis (GC 2242) (Enterococcus sp.): 16 µg/mL (≈ 13.8 µM)
MIC Enterococcus faecalis (GC 2691) (Enterococcus sp.): 16 µg/mL (≈ 13.8 µM)
MIC Enterococcus faecalis (GC 3059) (Enterococcus sp.): 16 µg/mL (≈ 13.8 µM)
MIC Enterococcus faecalis (GC 4552) (Enterococcus sp.): 16 µg/mL (≈ 13.8 µM)
MIC Enterococcus faecalis (GC 4553) (Enterococcus sp.): 4 µg/mL (≈ 3.45 µM)
MIC Enterococcus faecalis (GC 4554) (Enterococcus sp.): 16 µg/mL (≈ 13.8 µM)
MIC Enterococcus faecalis (GC 6189) (Enterococcus sp.): 16 µg/mL (≈ 13.8 µM)
MIC Enterococcus faecium (GC 2243) (Enterococcus sp.): 8 µg/mL (≈ 6.9 µM)
MIC Enterococcus faecium (GC 4556) (Enterococcus sp.): 16 µg/mL (≈ 13.8 µM)
MIC Enterococcus faecium (GC 4557) (Enterococcus sp.): 4 µg/mL (≈ 3.45 µM)
MIC Coagulase Negative Staphylococcus (GC 4547) (Staphylococcus sp.): 16 µg/mL (≈ 13.8 µM)
MIC Coagulase Negative Staphylococcus (GC 4548) (Staphylococcus sp.): 8 µg/mL (≈ 6.9 µM)
MIC Coagulase Negative Staphylococcus (GC 4549) (Staphylococcus sp.): 8 µg/mL (≈ 6.9 µM)
MIC Coagulase Negative Staphylococcus (GC 4551) (Staphylococcus sp.): 8 µg/mL (≈ 6.9 µM)
MIC Coagulase Negative Staphylococcus (GC 6257) (Staphylococcus sp.): 4 µg/mL (≈ 3.45 µM)
MIC Staphylococcus aureus (ATCC 29213) (Staphylococcus sp.): 16 µg/mL (≈ 13.8 µM)
MIC Staphylococcus aureus (GC 1131) (Staphylococcus sp.): 8 µg/mL (≈ 6.9 µM)
MIC Staphylococcus aureus (GC 3051) (Staphylococcus sp.): 8 µg/mL (≈ 6.9 µM)
MIC Staphylococcus aureus (GC 3053) (Staphylococcus sp.): 8 µg/mL (≈ 6.9 µM)
MIC Staphylococcus aureus (GC 4541) (Staphylococcus sp.): 8 µg/mL (≈ 6.9 µM)
MIC Staphylococcus aureus (GC 4542) (Staphylococcus sp.): 8 µg/mL (≈ 6.9 µM)
MIC Staphylococcus aureus (GC 4544) (Staphylococcus sp.): 8 µg/mL (≈ 6.9 µM)
MIC Staphylococcus aureus (GC 4545) (Staphylococcus sp.): 16 µg/mL (≈ 13.8 µM)
MIC Staphylococcus aureus-SMITH (GC 4543) (Staphylococcus sp.): 8 µg/mL (≈ 6.9 µM)
MIC Staphylococcus haemolyticus (GC 4546) (Staphylococcus sp.): 8 µg/mL (≈ 6.9 µM)
MIC Streptococcus agalactiae (GC 4564) (Streptococcus sp.): 16 µg/mL (≈ 13.8 µM)
MIC Streptococcus pneumoniae (ATCC 6301) (Streptococcus sp.): 32 µg/mL (≈ 27.6 µM)
MIC Streptococcus pneumoniae (GC 1894) (Streptococcus sp.): 16 µg/mL (≈ 13.8 µM)
MIC Streptococcus pneumoniae (GC 4565) (Streptococcus sp.): 16 µg/mL (≈ 13.8 µM)
MIC Streptococcus pyogenes (GC 4563) (Streptococcus sp.): 4 µg/mL (≈ 3.45 µM)
MIC Escherichia coli (ATCC 25922) (Escherichia coli): 128 µg/mL (≈ 110 µM)
MIC Escherichia coli (GC 4559) (Escherichia coli): >128 µg/mL
MIC Escherichia coli (GC 4560) (Escherichia coli): 4 µg/mL (≈ 3.45 µM)

CC(C1CCCCC1)C1NC(=O)CNC(=O)C(CO)NC(=O)C(C(O)C2CNC(=N)N2C2OC(CO)C(O)C(O)C2O)NC(=O)C(C(O)C2CNC(=N)N2)NC(=O)C(C[C@H]2CC[C@H](O)CC2)NC1=O (stereo partly drawn) [Example 54a, Cyclo[3-(anti-4-hydroxycyclohexyl)alanyl-3-(2-iminoimidazolidin-4-yl)seoyl-3-(3-hexopyranosyl-2-iminoimidazolidin-4-yl)serylserylglycyl-3-cyclohexyl-2-aminobutanoyl]]
MIC Enterococcus avium (GC 4558) (Enterococcus sp.; Enterococcus avium (GC 4558), broth dilution, 18 hours at 35° C.): 128 µg/mL (≈ 130 µM)
MIC Enterococcus faecalis (ATCC 29212) (Enterococcus sp.; Enterococcus faecalis (ATCC 29212), broth dilution, 18 hours at 35° C.): >128 µg/mL
MIC Enterococcus faecalis (GC 4552) (Enterococcus sp.; Enterococcus faecalis (GC 4552), broth dilution, 18 hours at 35° C.): >128 µg/mL
MIC Enterococcus faecalis (GC 4553) (Enterococcus sp.; Enterococcus faecalis (GC 4553), broth dilution, 18 hours at 35° C.): >128 µg/mL
MIC Enterococcus faecalis (GC 4554) (Enterococcus sp.; Enterococcus faecalis (GC 4554), broth dilution, 18 hours at 35° C.): >128 µg/mL
MIC Enterococcus faecalis (GC 6189) (Enterococcus sp.; Enterococcus faecalis (GC 6189), broth dilution, 18 hours at 35° C.): >128 µg/mL
MIC Enterococcus faecium (GC 2243) (Enterococcus sp.; Enterococcus faecium (GC 2243), broth dilution, 18 hours at 35° C.): >128 µg/mL
MIC Enterococcus faecium (GC 4556) (Enterococcus sp.; Enterococcus faecium (GC 4556), broth dilution, 18 hours at 35° C.): >128 µg/mL
MIC Enterococcus faecium (GC 4557) (Enterococcus sp.; Enterococcus faecium (GC 4557), broth dilution, 18 hours at 35° C.): 128 µg/mL (≈ 130 µM)
MIC Enterococcus avium (GC 4558) (Enterococcus sp.; [1]): 128 µg/mL (≈ 130 µM)
MIC Enterococcus faecalis (ATCC 29212) (Enterococcus sp.; [1]): >128 µg/mL
MIC Enterococcus faecalis (GC 2242) (Enterococcus sp.; [1]): >128 µg/mL
MIC Enterococcus faecalis (GC 2691) (Enterococcus sp.; [1]): >128 µg/mL
MIC Enterococcus faecalis (GC 3059) (Enterococcus sp.; [1]): >128 µg/mL
MIC Enterococcus faecalis (GC 4552) (Enterococcus sp.; [1]): >128 µg/mL
MIC Enterococcus faecalis (GC 4553) (Enterococcus sp.; [1]): >128 µg/mL
MIC Enterococcus faecalis (GC 4554) (Enterococcus sp.; [1]): >128 µg/mL
MIC Enterococcus faecalis (GC 6189) (Enterococcus sp.; [1]): >128 µg/mL
MIC Enterococcus faecium (GC 2243) (Enterococcus sp.; [1]): >128 µg/mL
MIC Enterococcus faecium (GC 4556) (Enterococcus sp.; [1]): >128 µg/mL
MIC Enterococcus faecium (GC 4557) (Enterococcus sp.; [1]): 128 µg/mL (≈ 130 µM)
MIC Enterococcus faecalis (GC 2242) (Enterococcus sp.; broth dilution, 18 hours at 35° C., strain GC 2242): >128 µg/mL
MIC Enterococcus faecalis (GC 2691) (Enterococcus sp.; broth dilution, 18 hours at 35° C., strain GC 2691): >128 µg/mL
MIC Enterococcus faecalis (GC 3059) (Enterococcus sp.; broth dilution, 18 hours at 35° C., strain GC 3059): >128 µg/mL
MIC Staphylococcus aureus (ATCC 29213) (Staphylococcus sp.; strain ATCC 29213, broth dilution, 18 hours at 35° C.): >128 µg/mL
MIC Staphylococcus aureus (GC 1131) (Staphylococcus sp.; strain GC 1131, broth dilution, 18 hours at 35° C.): >128 µg/mL
MIC Staphylococcus aureus (GC 3051) (Staphylococcus sp.; strain GC 3051, broth dilution, 18 hours at 35° C.): >128 µg/mL
MIC Staphylococcus aureus (GC 3053) (Staphylococcus sp.; strain GC 3053, broth dilution, 18 hours at 35° C.): >128 µg/mL
MIC Staphylococcus aureus (GC 4541) (Staphylococcus sp.; strain GC 4541, broth dilution, 18 hours at 35° C.): >128 µg/mL
MIC Staphylococcus aureus (GC 4542) (Staphylococcus sp.; strain GC 4542, broth dilution, 18 hours at 35° C.): >128 µg/mL
MIC Staphylococcus aureus-SMITH (GC 4543) (Staphylococcus sp.; strain GC 4543, broth dilution, 18 hours at 35° C.): >128 µg/mL
MIC Staphylococcus aureus (GC 4544) (Staphylococcus sp.; strain GC 4544, broth dilution, 18 hours at 35° C.): >128 µg/mL
MIC Staphylococcus aureus (GC 4545) (Staphylococcus sp.; strain GC 4545, broth dilution, 18 hours at 35° C.): >128 µg/mL
MIC Staphylococcus haemolyticus (GC 4546) (Staphylococcus sp.; strain GC 4546, broth dilution, 18 hours at 35° C.): 128 µg/mL (≈ 130 µM)
MIC Coagulase Negative Staphylococcus (GC 4547) (Staphylococcus sp.; strain GC 4547, broth dilution, 18 hours at 35° C.): 128 µg/mL (≈ 130 µM)
MIC Coagulase Negative Staphylococcus (GC 4548) (Staphylococcus sp.; strain GC 4548, broth dilution, 18 hours at 35° C.): >128 µg/mL
MIC Coagulase Negative Staphylococcus (GC 4549) (Staphylococcus sp.; strain GC 4549, broth dilution, 18 hours at 35° C.): >128 µg/mL
MIC Coagulase Negative Staphylococcus (GC 4551) (Staphylococcus sp.; strain GC 4551, broth dilution, 18 hours at 35° C.): >128 µg/mL
MIC Streptococcus agalactiae (GC 4564) (Streptococcus sp.; [1]): >128 µg/mL
MIC Streptococcus pneumoniae (ATCC 6301) (Streptococcus sp.; [1]): >128 µg/mL
MIC Streptococcus pneumoniae (GC 1894) (Streptococcus sp.; [1]): 128 µg/mL (≈ 130 µM)
MIC Streptococcus pneumoniae (GC 4565) (Streptococcus sp.; [1]): >128 µg/mL
MIC Streptococcus pyogenes (GC 4563) (Streptococcus sp.; [1]): >128 µg/mL
MIC Streptococcus pneumoniae (ATCC 6301) (Streptococcus sp.; broth dilution, 18 hours at 35° C., strain ATCC 6301): >128 µg/mL
MIC Streptococcus pneumoniae (GC 1894) (Streptococcus sp.; broth dilution, 18 hours at 35° C., strain GC 1894): 128 µg/mL (≈ 130 µM)
MIC Streptococcus pyogenes (GC 4563) (Streptococcus sp.; broth dilution, 18 hours at 35° C., strain GC 4563): >128 µg/mL
MIC Streptococcus agalactiae (GC 4564) (Streptococcus sp.; broth dilution, 18 hours at 35° C., strain GC 4564): >128 µg/mL
MIC Streptococcus pneumoniae (GC 4565) (Streptococcus sp.; broth dilution, 18 hours at 35° C., strain GC 4565): >128 µg/mL
MIC Escherichia coli (ATCC 25922) (Escherichia coli; 18 hours at 35° C.): >128 µg/mL
MIC Escherichia coli (GC 4559) (Escherichia coli; 18 hours at 35° C.): >128 µg/mL
MIC Escherichia coli (GC 4560) (Escherichia coli; 18 hours at 35° C.): >128 µg/mL
